Laboratory results from patent US20100022521A1, “COMPOUNDS” (Hansa Metallwerke AG, priority 2005, published 2010).

Molecular target: mGluR5 (UniProt P31424)
Test: MGluR5 receptor binding test ([3H]-M-MPEP displacement)
Parameters: species or system rat
Details: radioligand [3H]-M-MPEP (2 nM); species not given; read-out: mGlu5 Ki
Protocol: MGluR5 Receptor Binding Tests
Rat cerebro-cortical membrane preparation was used to determine the binding characteristics of reference compounds and novel compounds to the rat mGluR5. The A18 cell line expressing hmGluR5a (purchased from Euroscreen) was used to determine binding characteristics of the chemical compounds to the human mGluR5a receptor. As radioligand [3H]-M-MPEP (2 nM) was used. The nonspecific binding was determined in the presence of 10 μM M-MPEP.

| Compound | Ki [nM] |
| --- | --- |
| O=S(=O)(c1cccc(Cl)c1)c1sc2ncccc2c1-c1ccc(F)cc1 [Compound 54] | < 500 |
| O=S(=O)(c1cccc(F)c1)c1sc2nc(F)ccc2c1-c1ccc(Cl)cc1 [Compound 77] | < 500 |
| COc1ccc(S(=O)(=O)c2sc3ncccc3c2-c2cccc(F)c2)cc1F [Compound 127] | < 500 |
| O=S(=O)(c1ccc(C(F)(F)F)cc1)c1sc2ncccc2c1-c1ccc(Cl)cc1 [Compound 68] | < 500 |
| CN(C)c1ccc2c(-c3ccc(Cl)cc3)c(S(=O)(=O)c3ccc(Cl)cc3)sc2n1 [Compound 47, 2-(4-Chloro-benzenesulfonyl)-3-(4-chloro-phenyl)-6-dimethylamino-thieno[2,3-b]pyridine] | 500 to 1500 |
| Nc1ccc2c(-c3ccc(Cl)cc3)c(S(=O)(=O)c3ccc(Cl)cc3)sc2n1 [Compound 49, 6-Amino-2-(4-chloro-benzenesulfonyl)-3-(4-chloro-phenyl)-thieno[2,3-b]pyridine] | < 500 |
| O=S(=O)(c1ccc(Cl)cc1)c1sc2ncccc2c1-c1ccccc1Cl [Compound 113] | < 500 |
| Cc1ccc(-c2c(S(=O)(=O)c3cccc(Cl)c3)sc3ncccc23)cc1 [Compound 37] | < 500 |
| Nc1ccnc2sc(S(=O)(=O)c3ccc(Cl)cc3)c(-c3ccc(Cl)cc3)c12 [Compound 125, 4-Amino-2-(4-chloro-benzenesulfonyl)-3-(4-chloro-phenyl)-thieno[2,3-b]pyridine] | < 500 |
| Cc1cccc(S(=O)(=O)c2sc3ncccc3c2-c2ccc(F)cc2)c1 [Compound 61] | < 500 |
| N#Cc1cc(F)cc(S(=O)(=O)c2sc3nc(Cl)ccc3c2-c2ccc(Cl)cc2)c1 [Compound 86, 2-(3-Cyano-5-fluoro-benzenesulfonyl)-3-(4-chloro-phenyl)-6-chloro-thieno[2,3-b]pyridine] | < 500 |
| N#Cc1cc(F)cc(S(=O)(=O)c2sc3ncccc3c2-c2ccccc2F)c1 [Compound 132] | < 500 |
| N#Cc1cccc(S(=O)(=O)c2sc3ncccc3c2-c2ccncc2)c1 [Compound 73] | < 500 |
| O=S(=O)(c1ccc(Cl)cc1)c1sc2ncc(F)cc2c1-c1ccc(Cl)cc1 [Compound 123, 2-(4-Chloro-benzenesulfonyl)-3-(4-chloro-phenyl)-5-fluoro-thieno[2,3-b]pyridine] | < 500 |
| COc1cccc(S(=O)(=O)c2sc3ncccc3c2-c2ccc(Cl)cc2)c1 [Compound 70] | < 500 |
| N#Cc1cccc(-c2c(S(=O)(=O)c3cccc(C#N)c3)sc3ncccc23)c1 [Compound 66] | < 500 |
| N#Cc1cc(F)cc(S(=O)(=O)c2sc3ncccc3c2-c2cccc(Cl)c2)c1 [Compound 136] | < 500 |
| O=S(=O)(c1ccc(Cl)cc1)c1sc2ncc(Cl)cc2c1-c1ccc(Cl)cc1 [Compound 97, 5-Chloro-2-(4-chloro-benzenesulfonyl)-3-(4-chloro-phenyl)-thieno[2,3-b]pyridine] | < 500 |
| Cc1ccc(S(=O)(=O)c2sc3ncccc3c2-c2ccc(F)cc2)cc1Cl [Compound 23] | < 500 |
| Cc1ccc(S(=O)(=O)c2sc3ncccc3c2-c2ccc(Cl)cc2)cc1C [Compound 62] | < 500 |
| O=S(=O)(c1ccc(Cl)cc1)c1sc2ncc(F)cc2c1-c1cccc(F)c1 [Compound 137, 2-(4-Chloro-benzenesulfonyl)-3-(3-fluoro-phenyl)-5-fluoro-thieno[2,3-b]pyridine] | < 500 |
| O=S(=O)(c1ccc(Cl)cc1)c1sc2nccc(F)c2c1-c1ccc(Cl)cc1 [Compound 102, 4-Fluor-2-(4-chloro-benzenesulfonyl)-3-(4-chloro-phenyl)-thieno[2,3-b]pyridine] | < 500 |
| COc1ccc(-c2c(S(=O)(=O)c3cccc(C#N)c3)sc3ncccc23)cc1 [Compound 84] | < 500 |
| O=S(=O)(c1cccc(F)c1)c1sc2nc(Cl)ccc2c1-c1ccc(Cl)cc1 [Compound 76] | 500 to 1500 |
| CS(=O)(=O)Nc1cnc2sc(S(=O)(=O)c3ccc(Cl)cc3)c(-c3ccc(Cl)cc3)c2c1 [Compound 85, N-[2-(4-Chloro-benzenesulfonyl)-3-(4-chloro-phenyl)-thieno[2,3-b]pyridin-5-yl]-methanesulfonamide] | < 500 |
| O=S(=O)(c1ccc(Cl)cc1)c1sc2nc(Cl)ccc2c1-c1ccc(Cl)cc1 [Compound 43, 6-chloro-2-(4-chloro-benzenesulfonyl)-3-(4-chloro-phenyl)-thieno[2,3-b]pyridine] | < 500 |
| O=S(=O)(c1ccc(Cl)cc1)c1sc2nc(F)ccc2c1-c1ccc(Cl)cc1 [Compound 58] | < 500 |
| CC(C)c1ccc(S(=O)(=O)c2sc3ncccc3c2-c2ccc(Cl)cc2)cc1 [Compound 88] | < 500 |
| O=S(=O)(c1ccccc1Cl)c1sc2ncccc2c1-c1ccc(Cl)cc1 [Compound 6] | 500 to 1500 |
| CN(C)c1ccnc2sc(S(=O)(=O)c3ccc(Cl)cc3)c(-c3ccc(Cl)cc3)c12 [Compound 135, 2-(4-Chloro-benzenesulfonyl)-3-(4-chloro-phenyl)-4-dimethylamino-thieno[2,3-b]pyridine] | 500 to 1500 |

More lines, now with the values ahead:

| Ki [nM] | Compound |
| --- | --- |
| < 500 | CC1CCN(c2c(S(=O)(=O)c3ccc(Cl)cc3)sc3ncccc23)CC1 [Compound 94] |
| > 1500 | CS(=O)(=O)NC1CCN(c2c(S(=O)(=O)c3ccc(Cl)cc3)sc3ncccc23)CC1 [Compound 116] |
| < 500 | O=S(=O)(c1ccc(Cl)cc1)c1sc2ncccc2c1N1CCC(C(F)(F)F)CC1 [Compound 92] |
| < 500 | CC1CCN(c2c(S(=O)(=O)c3ccc(Cl)cc3)sc3ncc(N)cc23)CC1 [Compound 104, 5-Amino-2-(4-chloro-benzenesulfonyl)-3-(4-methyl-piperidine)-thieno[2,3-b]pyridine] |
| < 500 | CN(C)c1c(S(=O)(=O)c2ccc(Cl)cc2)sc2ncccc12 [Compound 100] |
| > 1500 | CN1CCN(C(=O)Nc2c(S(=O)(=O)c3ccc(Cl)cc3)sc3ncccc23)CC1 [Compound 122] |
| 500 to 1500 | CC1CCN(S(=O)(=O)c2sc3ncccc3c2-c2ccc(Cl)cc2)CC1 [Compound 20, 3-(4-Chlorophenyl)-2-(4-methyl-piperidine-1-sulfonyl)-thieno[2,3-b]pyridine] |
| < 500 | O=S(=O)(c1ccc(Cl)cc1)c1sc2ncccc2c1N1CCC(F)(F)CC1 [Compound 134] |
| < 500 | O=S(=O)(c1ccc(Cl)cc1)c1sc2ncccc2c1-c1cccc(F)c1 [Compound 109] |
| < 500 | O=S(=O)(c1ccc(Cl)cc1)c1sc2ncccc2c1-c1cccc(Cl)c1 [Compound 60] |
| > 1500 | CC(=O)N1CCN(c2c(S(=O)(=O)c3ccc(Cl)cc3)sc3ncccc23)CC1 [Compound 105] |
| < 500 | O=S(=O)(c1ccc(Cl)cc1)c1sc2ncccc2c1N1CCCC1 [Compound 129] |
| < 500 | O=S(=O)(c1ccc(Cl)cc1)c1sc2ncccc2c1-c1ccccc1F [Compound 114] |
| > 1500 | O=S(=O)(c1ccc(Cl)cc1)c1sc2ncccc2c1N1CC[S+]([O-])CC1 [Compound 117] |
| > 1500 | O=S(=O)(c1ccc(Cl)cc1)c1sc2ncccc2c1N1CCN(c2ccc(F)cc2)CC1 [Compound 118] |
| < 500 | O=S(=O)(c1ccc(Cl)cc1)c1sc2ncccc2c1N1CCOCC1 [Compound 46] |
| < 500 | O=S(=O)(c1ccc(Br)cc1)c1sc2ncccc2c1-c1ccc(Cl)cc1 [Compound 25] |
